In patent US20200131196A1 (Mount Tam Therapeutics, Inc., priority 2017, published 2020):
Each block holds one compound with its values, some of them ahead of it.

Experiments:
G-402 = test: OncoPanel cell proliferation assay, G-402; assay type: cell-based, human; details: for GI50: read-out: Cell Count GI50
Experimental: (§1) Cells were grown in RPMI 1640, 10% FBS, 2 mM L-alanyl-L-glutamine, 1 mM Na pyruvate, or a special medium. Cells were seeded into 384-well plates and incubated in a humidified atmosphere of 5% CO2 at 37° C. Compounds were added the day following cell seeding. At the same time, a time zero untreated cell plate was generated. After a 3-day incubation period, cells were fixed and stained to allow fluorescence imaging of nuclei. Compounds (1 mM stock solutions) were serially diluted in half-log steps from the highest test concentration ([…]), and assayed over 10 concentrations with a maximum assay concentration of 0.1% DMSO. Automated fluorescence microscopy was carried out using a Molecular Devices ImageXpress Micro XL high-content imager, and images were collected with a 4× objective. 16-bit TIFF images were acquired and analyzed with MetaXpress 5.1.0.41 software.
(§2) Cell proliferation was measured by the fluorescence intensity of an incorporated nuclear dye. The output is referred to as the relative cell count, where the measured nuclear intensity is transformed to percent of control (POC) using the following formula: […]
(§3) Cellular response parameters were calculated using nonlinear regression to a sigmoidal single-site dose response model:
(§4) EC50 is the test compound concentration at the curve inflection point or half the effective response (parameter C of the fitted curve solution). GI50 is the concentration needed to reduce the observed growth by half (midway between the curve maximum and the time zero value). “Cell Count Activity Area” is an estimate of the integrated area above the curve (Barretina, et al. The Cancer Cell Line Encyclopedia enables predictive modelling of anticancer drug sensitivity. Nature 483: 603-607). […] In rare instances, values <0 or >10 may be observed. […] Curve-fitting, calculations, and report generation was performed using a custom data reduction engine and MathIQ based software (AIM).

NCIH446 = test: OncoPanel cell proliferation assay, NCIH446; assay type: cell-based, human; details: for EC50: NCI-H446, read-out: Cell Count EC50; for GI50: NCI-H446, read-out: Cell Count GI50
Experimental: as §1, §2, §3, §4

SW684 = test: OncoPanel cell proliferation assay, SW684; assay type: cell-based, human; details: for GI50: read-out: Cell Count GI50
Experimental: as §1, with “Cells” for “Cells were grown in RPMI 1640, 10% FBS, 2 mM L-alanyl-L-glutamine, 1 mM Na pyruvate, or a special medium. Cells”
as §2, §3
GI50 is the concentration needed to reduce the observed growth by half (midway between the curve maximum and the time zero value). […] In rare instances, values <0 or >10 may be observed. […] Curve-fitting, calculations, and report generation was performed using a custom data reduction engine and MathIQ based software (AIM).

Hs 852.T = test: OncoPanel cell proliferation assay, Hs 852.T; assay type: cell-based, human; details: for GI50: read-out: Cell Count GI50
Experimental: as §1, §2, §3, §4

A431 = test: OncoPanel cell proliferation assay, A431; assay type: cell-based, human; details: for GI50: A-431, read-out: Cell Count GI50; for IC50: A-431, read-out: Cell Count IC50
Experimental: as §1, §2, §3, §4

CEM-C1 = test: OncoPanel cell proliferation assay, CEM-C1; assay type: cell-based, human; details: for GI50: read-out: Cell Count GI50; for IC50: read-out: Cell Count IC50
Experimental: as §1, §2, §3, §4

NCI-H510A = test: OncoPanel cell proliferation assay, NCI-H510A; assay type: cell-based, human; details: for EC50: read-out: Cell Count EC50; for GI50: read-out: Cell Count GI50
Experimental: as §1, §2, §3, §4

SK-N-AS = test: OncoPanel cell proliferation assay, SK-N-AS; assay type: cell-based, human; details: for EC50: read-out: Cell Count EC50; for GI50: read-out: Cell Count GI50
Experimental: as §1, §2, §3, §4

ST486 = test: OncoPanel cell proliferation assay, ST486; assay type: cell-based, human; details: for GI50: read-out: Cell Count GI50; for IC50: read-out: Cell Count IC50
Experimental: as §1, §2, §3, §4

RKOE6 = test: OncoPanel cell proliferation assay, RKOE6; details: for EC50 / GI50 / IC50: Homo sapiens; for EC50: RKOE6, read-out: Cell Count EC50; for GI50: RKOE6, read-out: Cell Count GI50; for IC50: RKOE6, read-out: Cell Count IC50; for Cell Count Activity Area: RKOE6
Experimental: (§5) Cells were seeded into 384-well plates and incubated in a humidified atmosphere of 5% CO2 at 37° C. Compounds were added the day following cell seeding. At the same time, a time zero untreated cell plate was generated. After a 3-day incubation period, cells were fixed and stained to allow fluorescence imaging of nuclei. Compounds (1 mM stock solutions) were serially diluted in half-log steps from the highest test concentration (1 micromol), and assayed over 10 concentrations with a maximum assay concentration of 0.1% DMSO. Automated fluorescence microscopy was carried out using a Molecular Devices ImageXpress Micro XL high-content imager, and images were collected with a 4× objective. 16-bit TIFF images were acquired and analyzed with MetaXpress 5.1.0.41 software.

AsPC-1 = test: OncoPanel cell proliferation assay, AsPC-1; details: for Cell Count Activity Area: AsPC-1
Experimental: as §5

SK-UT-1 = test: OncoPanel cell proliferation assay, SK-UT-1; details: for EC50: SK-UT-1, read-out: Cell Count EC50; for GI50: SK-UT-1, read-out: Cell Count GI50; for Cell Count Activity Area: SK-UT-1
Experimental: as §5

[1] = Homo sapiens, read-out: Cell Count EC50
[2] = Homo sapiens, read-out: Cell Count IC50

GI50 (SW684; Homo sapiens): 1.97 nM | IC50 (SW684; [2]): > 1000 nM | EC50 (A431; Homo sapiens, A-431, read-out: Cell Count EC50): > 1000 nM | GI50 (A431; Homo sapiens): > 1000 nM | IC50 (A431; Homo sapiens): > 1000 nM | EC50 (NCI-H510A; Homo sapiens): > 1000 nM | GI50 (NCI-H510A; Homo sapiens): > 1000 nM | IC50 (NCI-H510A; [2]): > 1000 nM | EC50 (SK-N-AS; Homo sapiens): 0.231 nM | GI50 (SK-N-AS; Homo sapiens): 0.432 nM | IC50 (SK-N-AS; [2]): > 1000 nM | EC50 (AsPC-1; Homo sapiens, ASPC1, read-out: Cell Count EC50): > 1000 nM | GI50 (AsPC-1; Homo sapiens, ASPC1, read-out: Cell Count GI50): > 1000 nM | IC50 (AsPC-1; Homo sapiens, ASPC1, read-out: Cell Count IC50): > 1000 nM | EC50 (SK-UT-1; Homo sapiens): 0.2 nM | GI50 (SK-UT-1; Homo sapiens): > 1000 nM | IC50 (SK-UT-1; Homo sapiens, SK-UT-1, read-out: Cell Count IC50): > 1000 nM
Structure (SMILES): CO[C@H]1C[C@@H]2CC[C@@H](C)[C@@](O)(O2)C(=O)C(=O)N2CCCC[C@H]2C(=O)O[C@H]([C@H](C)C[C@@H]2CC[C@@H](O)[C@H](OC)C2)CC(=O)[C@H](C)/C=C(\C)[C@@H](O)[C@@H](OC)C(=O)[C@H](C)C[C@H](C)/C=C/C=C/C=C/1C [Rapamycin, reference compound]
Cell Count Activity Area (G-402): 4.68 | EC50 (G-402; [1]): 0.111 nM | GI50 (G-402; Homo sapiens): 0.182 nM | IC50 (G-402; [2]): 0.334 nM | Cell Count Activity Area (NCIH446): 1.69 | EC50 (NCIH446; Homo sapiens): > 1000 nM | GI50 (NCIH446; Homo sapiens): 44.4 nM | IC50 (NCIH446; Homo sapiens, NCI-H446, read-out: Cell Count IC50): > 1000 nM | Cell Count Activity Area (SW684): 2.81 | Cell Count Activity Area (Hs 852.T): 1.43 | EC50 (Hs 852.T; [1]): > 1000 nM | GI50 (Hs 852.T; Homo sapiens): > 1000 nM | IC50 (Hs 852.T; [2]): > 1000 nM | Cell Count Activity Area (A431): 0.28 | Cell Count Activity Area (CEM-C1): 3.61 | EC50 (CEM-C1; [1]): 0.265 nM | GI50 (CEM-C1; Homo sapiens): 4.36 nM | IC50 (CEM-C1; Homo sapiens): > 1000 nM | Cell Count Activity Area (NCI-H510A): 1.63 | Cell Count Activity Area (SK-N-AS): 3.58 | Cell Count Activity Area (ST486): 3.99 | EC50 (ST486; [1]): 0.0354 nM | GI50 (ST486; Homo sapiens): 0.0524 nM | IC50 (ST486; Homo sapiens): > 1000 nM | EC50 (RKOE6): 0.0835 nM | GI50 (RKOE6): 0.356 nM | IC50 (RKOE6): 1.06 nM | Cell Count Activity Area (RKOE6): 4.61 | Cell Count Activity Area (AsPC-1): 1.48 | Cell Count Activity Area (SK-UT-1): 3.23

Structure (SMILES): CN[C@@H]1C[C@H]2O[C@@](C)([C@@H]1OC)n1c3ccccc3c3c4c(c5c6ccccc6n2c5c31)C(=O)NC4 [Staurosporine, reference compound]
Cell Count Activity Area (G-402): 5.93 | GI50 (G-402; Homo sapiens): 0.664 nM | Cell Count Activity Area (NCIH446): 2.81 | EC50 (NCIH446; Homo sapiens): 32.6 nM | GI50 (NCIH446; Homo sapiens): 16.8 nM | GI50 (SW684; Homo sapiens): 0.95 nM | Cell Count Activity Area (Hs 852.T): 3.16 | GI50 (Hs 852.T; Homo sapiens): 1.35 nM | Cell Count Activity Area (A431): 5.64 | GI50 (A431; Homo sapiens): 1.03 nM | IC50 (A431; Homo sapiens): 1.19 nM | Cell Count Activity Area (CEM-C1): 4.28 | GI50 (CEM-C1; Homo sapiens): 7.27 nM | IC50 (CEM-C1; Homo sapiens): 9.2 nM | Cell Count Activity Area (NCI-H510A): 1.68 | EC50 (NCI-H510A; Homo sapiens): 39.8 nM | GI50 (NCI-H510A; Homo sapiens): 56.5 nM | Cell Count Activity Area (SK-N-AS): 4.83 | EC50 (SK-N-AS; Homo sapiens): 1.7 nM | GI50 (SK-N-AS; Homo sapiens): 1.27 nM | Cell Count Activity Area (ST486): 4.89 | GI50 (ST486; Homo sapiens): 2.83 nM | IC50 (ST486; Homo sapiens): 4.61 nM | EC50 (RKOE6): 16.8 nM | GI50 (RKOE6): 13.2 nM | IC50 (RKOE6): 17.9 nM | Cell Count Activity Area (RKOE6): 3.96 | Cell Count Activity Area (AsPC-1): 3.28 | EC50 (SK-UT-1; Homo sapiens): 21.8 nM | GI50 (SK-UT-1; Homo sapiens): 19.5 nM | Cell Count Activity Area (SK-UT-1): 3.46
